Tests used:
Carbonic anhydrase 1 = Carbonic anhydrase 1 (Homo sapiens, UniProt P00915); test: Inhibition of recombinant human carbonic anhydrase 1 pre-incubated for 10 mins by stopped flow CO2 hydrase assay
Carbonic anhydrase 2 = Carbonic anhydrase 2 (Homo sapiens, UniProt P00918); test: Inhibition of recombinant human carbonic anhydrase 2 pre-incubated for 10 mins by stopped flow CO2 hydrase assay
Carbonic anhydrase 9 [1] = target: T1, Carbonic anhydrase 9 (Homo sapiens, UniProt Q16790); test: Inhibition of recombinant human carbonic anhydrase 9 preincubated for 10 mins by stopped flow CO2 hydrase assay
Carbonic anhydrase 9 [2] = target: T1, Carbonic anhydrase 9; test: Inhibition of recombinant human carbonic anhydrase 9 preincubated for 6 hrs at 24 degC by stopped flow CO2 hydrase assay
Carbonic anhydrase 12 = Carbonic anhydrase 12 (Homo sapiens, UniProt O43570); test: Inhibition of recombinant human carbonic anhydrase 12 preincubated for 6 hrs at 24 degC by stopped flow CO2 hydrase assay
Chain of Carbonic anhydrase 12 (O43570 whole entry): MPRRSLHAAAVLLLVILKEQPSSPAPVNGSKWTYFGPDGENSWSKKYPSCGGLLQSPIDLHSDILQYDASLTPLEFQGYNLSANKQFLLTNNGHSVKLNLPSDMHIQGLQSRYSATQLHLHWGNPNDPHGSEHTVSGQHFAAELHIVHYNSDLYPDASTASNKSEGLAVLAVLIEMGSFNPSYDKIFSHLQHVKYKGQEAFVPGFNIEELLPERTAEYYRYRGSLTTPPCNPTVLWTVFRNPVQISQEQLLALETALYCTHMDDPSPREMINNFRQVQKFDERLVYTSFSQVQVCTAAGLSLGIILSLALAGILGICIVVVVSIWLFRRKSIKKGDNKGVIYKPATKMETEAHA

Chain of Carbonic anhydrase 1 (P00915 whole entry): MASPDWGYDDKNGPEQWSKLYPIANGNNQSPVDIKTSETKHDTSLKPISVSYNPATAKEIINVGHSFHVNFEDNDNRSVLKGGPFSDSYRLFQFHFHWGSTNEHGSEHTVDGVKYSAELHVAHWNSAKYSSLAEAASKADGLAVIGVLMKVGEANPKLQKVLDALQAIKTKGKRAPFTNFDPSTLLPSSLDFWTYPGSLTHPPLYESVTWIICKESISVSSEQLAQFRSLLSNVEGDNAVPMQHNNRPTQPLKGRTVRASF

O=c1cc(CN2CCN(Cc3ccccc3)CC2)c2ccc(OCc3ccccc3F)cc2o1
Ki (Carbonic anhydrase 1): > 100 µM | Ki (Carbonic anhydrase 2): > 100 µM | Ki (Carbonic anhydrase 9 [1]): 0.91 µM

O=c1cc(CN2CCN(Cc3ccccc3)CC2)c2ccc(OCc3cccc(Br)c3)cc2o1
Ki (Carbonic anhydrase 1): > 100 µM | Ki (Carbonic anhydrase 2): > 100 µM | Ki (Carbonic anhydrase 9 [1]): 0.85 µM

COc1ccc(N2CCN(Cc3cc(=O)oc4cc(OCc5ccc(Br)cc5)ccc34)CC2)cc1
Ki (Carbonic anhydrase 1): > 100 µM | Ki (Carbonic anhydrase 2): > 100 µM | Ki (Carbonic anhydrase 9 [1]): 0.89 µM

COc1ccc(N2CCN(Cc3cc(=O)oc4cc(OCc5ccc([N+](=O)[O-])cc5)ccc34)CC2)cc1
Ki (Carbonic anhydrase 1): > 100 µM | Ki (Carbonic anhydrase 2): > 100 µM | Ki (Carbonic anhydrase 9 [1]): 2.66 µM

COc1cccc(COc2ccc3c(CN4CCN(Cc5ccccc5)CC4)cc(=O)oc3c2)c1
Ki (Carbonic anhydrase 1): > 100 µM | Ki (Carbonic anhydrase 2): > 100 µM | Ki (Carbonic anhydrase 9 [1]): 4.9 µM

COc1ccc(N2CCN(Cc3cc(=O)oc4cc(OCc5ccccc5F)ccc34)CC2)cc1
Ki (Carbonic anhydrase 1): > 100 µM | Ki (Carbonic anhydrase 2): > 100 µM | Ki (Carbonic anhydrase 9 [1]): 3.85 µM

COc1ccc(N2CCN(Cc3cc(=O)oc4cc(OCc5cc(C)cc(C)c5)ccc34)CC2)cc1
Ki (Carbonic anhydrase 1): > 100 µM | Ki (Carbonic anhydrase 2): > 100 µM | Ki (Carbonic anhydrase 9 [1]): 4.55 µM

COc1ccc(N2CCN(Cc3cc(=O)oc4cc(OCc5ccccc5)ccc34)CC2)cc1
Ki (Carbonic anhydrase 1): > 100 µM | Ki (Carbonic anhydrase 2): > 100 µM | Ki (Carbonic anhydrase 9 [1]): 5.52 µM

COc1ccc(N2CCN(Cc3cc(=O)oc4cc(OCc5cccc(OC)c5)ccc34)CC2)cc1
Ki (Carbonic anhydrase 1): > 100 µM | Ki (Carbonic anhydrase 2): > 100 µM | Ki (Carbonic anhydrase 9 [1]): 2.55 µM

Cc1cc(C)cc(COc2ccc3c(CN4CCN(Cc5ccccc5)CC4)cc(=O)oc3c2)c1
Ki (Carbonic anhydrase 1): > 100 µM | Ki (Carbonic anhydrase 2): > 100 µM | Ki (Carbonic anhydrase 9 [1]): 0.78 µM

COc1ccc(N2CCN(Cc3cc(=O)oc4cc(OCc5ccccc5[N+](=O)[O-])ccc34)CC2)cc1
Ki (Carbonic anhydrase 1): > 100 µM | Ki (Carbonic anhydrase 2): > 100 µM | Ki (Carbonic anhydrase 9 [1]): 5.39 µM

O=c1cc(CN2CCN(Cc3ccccc3)CC2)c2ccc(OCc3ccccc3)cc2o1
Ki (Carbonic anhydrase 1): > 100 µM | Ki (Carbonic anhydrase 2): > 100 µM | Ki (Carbonic anhydrase 9 [1]): 4.9 µM

O=c1cc(CN2CCN(Cc3ccccc3)CC2)c2ccc(OCc3ccc(Br)cc3)cc2o1
Ki (Carbonic anhydrase 1): > 100 µM | Ki (Carbonic anhydrase 2): > 100 µM

COc1ccc(CSc2nnc(COc3ccc4c(C)cc(=O)oc4c3)o2)cc1
Ki (Carbonic anhydrase 9 [1]): 2.34 µM

O=c1cc(CN2CCN(Cc3ccccc3)CC2)c2ccc(OCc3ccccc3[N+](=O)[O-])cc2o1
Ki (Carbonic anhydrase 1): > 100 µM | Ki (Carbonic anhydrase 2): > 100 µM | Ki (Carbonic anhydrase 9 [1]): 0.93 µM

COc1ccc(N2CCN(Cc3cc(=O)oc4cc(OCc5cccc(Cl)c5)ccc34)CC2)cc1
Ki (Carbonic anhydrase 1): > 100 µM | Ki (Carbonic anhydrase 2): > 100 µM | Ki (Carbonic anhydrase 9 [1]): 7.29 µM

N#Cc1ccc(Cn2cc(COc3ccc4c(CCl)cc(=O)oc4c3)nn2)cc1
Ki (Carbonic anhydrase 9 [2]): 0.0327 µM | Ki (Carbonic anhydrase 12): 0.624 µM

COc1ccc(N2CCN(Cc3cc(=O)oc4cc(OCc5cccc(Br)c5)ccc34)CC2)cc1
Ki (Carbonic anhydrase 1): > 100 µM | Ki (Carbonic anhydrase 2): > 100 µM | Ki (Carbonic anhydrase 9 [1]): 3.47 µM

O=c1cc(CN2CCN(Cc3ccccc3)CC2)c2ccc(OCc3ccc([N+](=O)[O-])cc3)cc2o1
Ki (Carbonic anhydrase 1): > 100 µM | Ki (Carbonic anhydrase 2): > 100 µM | Ki (Carbonic anhydrase 9 [1]): 3.16 µM

O=c1cc(CN2CCN(Cc3ccccc3)CC2)c2ccc(OCc3cc(F)ccc3F)cc2o1
Ki (Carbonic anhydrase 1): > 100 µM | Ki (Carbonic anhydrase 2): > 100 µM | Ki (Carbonic anhydrase 9 [1]): 4.43 µM

O=c1cc(CN2CCN(Cc3ccccc3)CC2)c2ccc(OCc3cccc(Cl)c3)cc2o1
Ki (Carbonic anhydrase 1): > 100 µM | Ki (Carbonic anhydrase 2): > 100 µM | Ki (Carbonic anhydrase 9 [1]): 4.6 µM

Source: ChEMBL document CHEMBL4732245, “Synthesis and biological evaluation of novel 4,7-disubstituted coumarins as selective tumor-associated carbonic anhydrase IX and XII inhibitors” (Bioorg Med Chem Lett, 2021)
